Tested on: 941728-121-R-J1-PDC complex spheroid viability
Assay: Anticancer human tumor 941728-121-R-J1-PDC patient-derived lung adenocarcinoma cell line growth inhibition [RAS]
Conditions: for IC50: curve of first compound; for viability, T/C: stronger effect = lower value
In short: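 Agents were tested in combination matrices in half-log decrements from a top concentration at or near clinical Cmax (10 microM if undetermined). Targets were multi-cell spheroids of tumour lines plus HUVEC and MSC stromal cells.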

[1] = second compound 0.000949 µM, first compound 0.00316 µM
[2] = second compound 0.000949 µM, first compound 0.01 µM
[3] = second compound 0.000949 µM, first compound 0.0316 µM
[4] = second compound 0.000949 µM, first compound 0.1 µM
[5] = second compound 0.000949 µM, first compound 0.316 µM
[6] = second compound 0.000949 µM, first compound 1 µM
[7] = second compound 0.003 µM, first compound 0.00316 µM
[8] = second compound 0.003 µM, first compound 0.01 µM
[9] = second compound 0.003 µM, first compound 0.0316 µM
[10] = second compound 0.003 µM, first compound 0.1 µM
[11] = second compound 0.003 µM, first compound 0.316 µM
[12] = second compound 0.003 µM, first compound 1 µM
[13] = second compound 0.00949 µM, first compound 0.00316 µM
[14] = second compound 0.00949 µM, first compound 0.01 µM
[15] = second compound 0.00949 µM, first compound 0.0316 µM
[16] = second compound 0.00949 µM, first compound 0.1 µM
[17] = second compound 0.00949 µM, first compound 0.316 µM
[18] = second compound 0.00949 µM, first compound 1 µM
[19] = second compound 0.03 µM, first compound 0.00316 µM
[20] = second compound 0.03 µM, first compound 0.01 µM
[21] = second compound 0.03 µM, first compound 0.0316 µM
[22] = second compound 0.03 µM, first compound 0.1 µM
[23] = second compound 0.03 µM, first compound 0.316 µM
[24] = second compound 0.03 µM, first compound 1 µM
[25] = second compound 0.0949 µM, first compound 0.00316 µM
[26] = second compound 0.0949 µM, first compound 0.01 µM
[27] = second compound 0.0949 µM, first compound 0.0316 µM
[28] = second compound 0.0949 µM, first compound 0.1 µM
[29] = second compound 0.0949 µM, first compound 0.316 µM
[30] = second compound 0.0949 µM, first compound 1 µM
[31] = second compound 0.3 µM, first compound 0.00316 µM
[32] = second compound 0.3 µM, first compound 0.01 µM
[33] = second compound 0.3 µM, first compound 0.0316 µM
[34] = second compound 0.3 µM, first compound 0.1 µM
[35] = second compound 0.3 µM, first compound 0.316 µM
[36] = second compound 0.3 µM, first compound 1 µM
[37] = second compound 0.000949 µM, first compound 3.16 µM
[38] = second compound 0.000949 µM, first compound 10 µM
[39] = second compound 0.003 µM, first compound 3.16 µM
[40] = second compound 0.003 µM, first compound 10 µM
[41] = second compound 0.00949 µM, first compound 3.16 µM
[42] = second compound 0.00949 µM, first compound 10 µM
[43] = second compound 0.03 µM, first compound 3.16 µM
[44] = second compound 0.03 µM, first compound 10 µM
[45] = second compound 0.0949 µM, first compound 3.16 µM
[46] = second compound 0.0949 µM, first compound 10 µM
[47] = second compound 0.3 µM, first compound 3.16 µM
[48] = second compound 0.3 µM, first compound 10 µM
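Note: spheroids exposed to compounds for 7 days before readout.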
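Throughout, for viability, T/C: 100% = DMSO vehicle control viability.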

## C=CC(=O)Nc1cc(Nc2nccc(-c3cn(C)c4ccccc34)n2)c(OC)cc1N(C)CCN(C)C + CCn1c(-c2cc(N3CCN(C)CC3)cnc2C(C)OC)c2c3cc(ccc31)-c1csc(n1)CC(NC(=O)C1CC1C)C(=O)N1CCCC(N1)C(=O)OCC(C)(C)C2
Second compound 0.000949 µM
  IC50: < 0.00316 µM
Second compound 0.003 µM
  IC50: < 0.00316 µM
Second compound 0.00949 µM
  IC50: < 0.00316 µM
Second compound 0.03 µM
  IC50: < 0.00316 µM
Second compound 0.0949 µM
  IC50: < 0.00316 µM
Second compound 0.3 µM
  IC50: < 0.00316 µM
[1]
  viability, T/C: 29.3%
[2]
  viability, T/C: 29.5%
[3]
  viability, T/C: 22.1%
[4]
  viability, T/C: 23.4%
[5]
  viability, T/C: 24.8%
[6]
  viability, T/C: 14%
[7]
  viability, T/C: 25.4%
[8]
  viability, T/C: 20.8%
[9]
  viability, T/C: 17.2%
[10]
  viability, T/C: 18.8%
[11]
  viability, T/C: 15.5%
[12]
  viability, T/C: 8.05%
[13]
  viability, T/C: 16.4%
[14]
  viability, T/C: 15%
[15]
  viability, T/C: 14.4%
[16]
  viability, T/C: 14.4%
[17]
  viability, T/C: 13.7%
[18]
  viability, T/C: 9.82%
[19]
  viability, T/C: 15.8%
[20]
  viability, T/C: 14.8%
[21]
  viability, T/C: 15.7%
[22]
  viability, T/C: 14.6%
[23]
  viability, T/C: 10.7%
[24]
  viability, T/C: 12%
[25]
  viability, T/C: 12.9%
[26]
  viability, T/C: 14.7%
[27]
  viability, T/C: 14.6%
[28]
  viability, T/C: 16.5%
[29]
  viability, T/C: 10.3%
[30]
  viability, T/C: 13.9%
[31]
  viability, T/C: 13.1%
[32]
  viability, T/C: 14.1%
[33]
  viability, T/C: 15%
[34]
  viability, T/C: 12.4%
[35]
  viability, T/C: 10.7%
[36]
  viability, T/C: 11.6%

## CC(C)NCC(C(=O)N1CCN(c2ncnc3c2C(C)CC3O)CC1)c1ccc(Cl)cc1 (stereo not drawn) + CCn1c(-c2cc(N3CCN(C)CC3)cnc2C(C)OC)c2c3cc(ccc31)-c1csc(n1)CC(NC(=O)C1CC1C)C(=O)N1CCCC(N1)C(=O)OCC(C)(C)C2
Second compound 0.000949 µM
  IC50: < 0.0316 µM
Second compound 0.003 µM
  IC50: < 0.0316 µM
Second compound 0.00949 µM
  IC50: < 0.0316 µM
Second compound 0.03 µM
  IC50: < 0.0316 µM
Second compound 0.0949 µM
  IC50: < 0.0316 µM
Second compound 0.3 µM
  IC50: < 0.0316 µM
[3]
  viability, T/C: 28.7%
[4]
  viability, T/C: 28.3%
[5]
  viability, T/C: 18.8%
[6]
  viability, T/C: 20.1%
[37]
  viability, T/C: 19%
[38]
  viability, T/C: 10.4%
[9]
  viability, T/C: 22.7%
[10]
  viability, T/C: 23.5%
[11]
  viability, T/C: 16.5%
[12]
  viability, T/C: 20.5%
[39]
  viability, T/C: 14.6%
[40]
  viability, T/C: 8.01%
[15]
  viability, T/C: 17.7%
[16]
  viability, T/C: 14.9%
[17]
  viability, T/C: 15.2%
[18]
  viability, T/C: 12.3%
[41]
  viability, T/C: 9.47%
[42]
  viability, T/C: 5.47%
[21]
  viability, T/C: 13.1%
[22]
  viability, T/C: 14%
[23]
  viability, T/C: 14.2%
[24]
  viability, T/C: 11.3%
[43]
  viability, T/C: 8.42%
[44]
  viability, T/C: 4.92%
[27]
  viability, T/C: 12.4%
[28]
  viability, T/C: 13.6%
[29]
  viability, T/C: 11.9%
[30]
  viability, T/C: 12.1%
[45]
  viability, T/C: 5.65%
[46]
  viability, T/C: 5.14%
[33]
  viability, T/C: 11.1%
[34]
  viability, T/C: 14.2%
[35]
  viability, T/C: 13.5%
[36]
  viability, T/C: 10%
[47]
  viability, T/C: 8.91%
[48]
  viability, T/C: 4.65%

## CC(Nc1ccc2c(c1)OCCn1cc(N3C(=O)OCC3C(F)F)nc1-2)C(N)=O (stereo not drawn) + CCn1c(-c2cc(N3CCN(C)CC3)cnc2C(C)OC)c2c3cc(ccc31)-c1csc(n1)CC(NC(=O)C1CC1C)C(=O)N1CCCC(N1)C(=O)OCC(C)(C)C2
Second compound 0.000949 µM
  IC50: < 0.0316 µM
Second compound 0.003 µM
  IC50: < 0.0316 µM
Second compound 0.00949 µM
  IC50: < 0.0316 µM
Second compound 0.03 µM
  IC50: < 0.0316 µM
Second compound 0.0949 µM
  IC50: < 0.0316 µM
Second compound 0.3 µM
  IC50: < 0.0316 µM
[3]
  viability, T/C: 26%
[4]
  viability, T/C: 23.3%
[5]
  viability, T/C: 18.9%
[6]
  viability, T/C: 21.3%
[37]
  viability, T/C: 20.5%
[38]
  viability, T/C: 12.1%
[9]
  viability, T/C: 19.4%
[10]
  viability, T/C: 15.9%
[11]
  viability, T/C: 13.4%
[12]
  viability, T/C: 14.2%
[39]
  viability, T/C: 11.7%
[40]
  viability, T/C: 7.42%
[15]
  viability, T/C: 14.2%
[16]
  viability, T/C: 10.3%
[17]
  viability, T/C: 11.2%
[18]
  viability, T/C: 9.14%
[41]
  viability, T/C: 7.89%
[42]
  viability, T/C: 5.97%
[21]
  viability, T/C: 12.3%
[22]
  viability, T/C: 10.6%
[23]
  viability, T/C: 10.1%
[24]
  viability, T/C: 8.95%
[43]
  viability, T/C: 11.8%
[44]
  viability, T/C: 6.96%
[27]
  viability, T/C: 11.5%
[28]
  viability, T/C: 8.85%
[29]
  viability, T/C: 9.23%
[30]
  viability, T/C: 8.74%
[45]
  viability, T/C: 7.5%
[46]
  viability, T/C: 6.53%
[33]
  viability, T/C: 11.4%
[34]
  viability, T/C: 9.97%
[35]
  viability, T/C: 9.41%
[36]
  viability, T/C: 6.86%
[47]
  viability, T/C: 6.29%
[48]
  viability, T/C: 6.96%

## O=C(c1ccc(F)c(F)c1Nc1ccc(I)cc1F)N1CC(O)([C@@H]2CCCCN2)C1 + CCn1c(-c2cc(N3CCN(C)CC3)cnc2C(C)OC)c2c3cc(ccc31)-c1csc(n1)CC(NC(=O)C1CC1C)C(=O)N1CCCC(N1)C(=O)OCC(C)(C)C2
Second compound 0.000949 µM
  IC50: < 0.00316 µM
Second compound 0.003 µM
  IC50: < 0.00316 µM
Second compound 0.00949 µM
  IC50: < 0.00316 µM
Second compound 0.03 µM
  IC50: < 0.00316 µM
Second compound 0.0949 µM
  IC50: < 0.00316 µM
Second compound 0.3 µM
  IC50: < 0.00316 µM
[1]
  viability, T/C: 26%
[2]
  viability, T/C: 26.8%
[3]
  viability, T/C: 15.6%
[4]
  viability, T/C: 19.6%
[5]
  viability, T/C: 16.4%
[6]
  viability, T/C: 8.5%
[7]
  viability, T/C: 21.8%
[8]
  viability, T/C: 17.2%
[9]
  viability, T/C: 15.4%
[10]
  viability, T/C: 14.5%
[11]
  viability, T/C: 12.3%
[12]
  viability, T/C: 13.5%
[13]
  viability, T/C: 15.1%
[14]
  viability, T/C: 11%
[15]
  viability, T/C: 12.7%
[16]
  viability, T/C: 12.7%
[17]
  viability, T/C: 12%
[18]
  viability, T/C: 8.59%
[19]
  viability, T/C: 13.4%
[20]
  viability, T/C: 12.9%
[21]
  viability, T/C: 12.2%
[22]
  viability, T/C: 12.7%
[23]
  viability, T/C: 8.4%
[24]
  viability, T/C: 10.3%
[25]
  viability, T/C: 12.6%
[26]
  viability, T/C: 12.5%
[27]
  viability, T/C: 12.3%
[28]
  viability, T/C: 12.4%
[29]
  viability, T/C: 11%
[30]
  viability, T/C: 10.8%
[31]
  viability, T/C: 12%
[32]
  viability, T/C: 11.5%
[33]
  viability, T/C: 12.7%
[34]
  viability, T/C: 11.5%
[35]
  viability, T/C: 8.36%
[36]
  viability, T/C: 9.92%
